Read-outs that look alike come from different tables or passages of the source.
Experiments:
2′-deoxyguanosine (dG) [1] = test: 8OHdG produced from dG with test substance and coexisting bisphenol A, standing or UV (Example 9); assay type: biochemical; details: for 8OHdG concentration, 90 Minutes' standing: ultrapure water 0.21; for 8OHdG concentration, 90 Minutes' UV irradiation: ultrapure water 0.64
Description: 170 μl portions of ultrapure water and predetermined concentrations of vitamin C (VC), vitamin E (VE), and glucose (Glu) as test substance were added to each well of two […] plastic plates and, as additional solution, 20 μl of ultrapure water or predetermined concentration of bisphenol A (BPA) were injected into each well.

[2] = cited from earlier work
2′-deoxyguanosine (dG) [3] = test: 8OHdG produced from added dG, standing at room temperature or UV irradiation (Examples 1-7); details: for 8OHdG concentration, 90 Minutes' UV irradiation: ultrapure water 0.529; for concentration at which oxidation injury activity due to UV light is elevated (harmfulness increased): Example 1, 90 minutes UV; for evaluation in words: oxidation induction or antioxidant ability toward dG: conclusions of Examples 2-7;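 on all read-outs here: Cell-free test: dG in test solution, held at room temperature or exposed to 254 nm UV, then 8OHdG quantified by HPLC with electrochemical detection, compared against dG in ultrapure water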
Description: Separately, the amount of 8OHdG after an ultrapure water solution of dG is left to stand under the same conditions as above for a predetermined time is measured (this value is defined as B). If A is greater than B, the test substance is evaluated to have oxidation induction ability and conversely if A is smaller than B, the test substance is evaluated to have antioxidant ability. In either case, it is judged that the greater the difference is, the greater degree of oxidation induction ability or antioxidant capability the test substance has.
Then, 20 μl of 200 μg/ml dG (dissolved in ultrapure water) was added to each well and one of the plates was left to stand as it was at room temperature for 90 minutes and the other plate was irradiated with UV light (254 nm, 860 μW/cm^2) for 90 minutes in a UV light irradiation box. […] Subsequently, nucleosides in the both were quantified by use of the UV light absorption analyzer connected to the HPLC and the electrochemical detector.
Solutions of predetermined concentrations of vitamin C (VC), vitamin E (VE), catechin (Cate) and tannic acid (Tan) were prepared and 180 μl portions were injected into each well of two 99-well plastic plates. Then, 20 μl of 200 μg/ml dG (dissolved in ultrapure water) was added to each well and one of the plates was left to stand as it was at room temperature for 90 minutes and the other plate was irradiated with UV light (254 nm, 860 μW/cm^2) for 90 minutes in a UV light irradiation box.
Then, 20 μl of 200 μg/ml dG (dissolved in ultrapure water) was added to each well and one of the plates was left to stand as it was at room temperature for 90 minutes and another plate was left to stand similarly at room temperature for 24 hours. The remaining three plates were irradiated with UV light (254 nm, 860 μW/cm^2) for 60 minutes, 90 minutes and 120 minutes, respectively, in a UV light irradiation box.
Solutions of predetermined concentrations of glucose (Glu), raffinose (Raffi) and sucrose (Suc) were prepared and 180 μl portions thereof were injected into each well of four 99-well plastic plates. Then, 20 μl of 200 μg/ml dG (dissolved in ultrapure water) was added to each well and one of the plates was left to stand as it was at room temperature for 90 minutes. The remaining three plates were irradiated with UV light (254 nm, 860 μW/cm^2) for 60 minutes, 90 minutes and 120 minutes, respectively, in a UV light irradiation box.
Then, 20 μl of 200 μg/ml dG (dissolved in ultrapure water) was added to each well and one of the plates was left to stand as it was at room temperature for 90 minutes and the other plate was irradiated with UV light (254 nm, 860 μW/cm^2) for 90 minutes in a UV light irradiation box.
Solutions of various concentrations of uric acid (dissolving fluid: distilled water+0.025% FBS) were prepared and 180 μl portions thereof were injected into each well of two 99-well plastic plates. Then, 20 μl of 200 μg/ml dG (dissolved in ultrapure water) was added to each well and one of the plates was left to stand as it was at room temperature for 90 minutes and the other plate was irradiated with UV light (254 nm, 860 μW/cm^2) for 90 minutes in a UV light irradiation box.

2′-deoxyguanosine (dG) [4] = test: 8OHdG produced from dG in presence of potassium bromate as active oxygen generator (Example 8); assay type: biochemical; details: with KBrO3, ultrapure water 2.699
2′-deoxyguanosine (dG) [5] = details: KBrO3 30 minutes; for dG: pure water ctrl 1.067; for 8OHdG/dG × 10^−3: pure water ctrl 3.542; for 8OHdG × 10^−3: pure water ctrl 3.779; for Relative initial magnification: pure water ctrl 13.47
[6] = BPA 0.5 ppm added to ultrapure water
[7] = BPA 5 ppm added to ultrapure water
[8] = BPA 50 ppm added to ultrapure water
[9] = 0.005 ppm, Table 1, ultrapure water 0.267
[10] = 0.5 ppm, Table 1, ultrapure water 0.267
[11] = 5 ppm, Table 1, ultrapure water 0.267
[12] = 5%, Table 3, ultrapure water 0.382
[13] = 20%, Table 3, ultrapure water 0.382

CC(C)(c1ccc(O)cc1)c1ccc(O)cc1 [BPA, bisphenol A]
8OHdG concentration, 90 Minutes' standing (2′-deoxyguanosine (dG) [1]; [6]): 0.19 ng/mL
8OHdG concentration, 90 Minutes' UV irradiation (2′-deoxyguanosine (dG) [1]; [6]): 2.09 ng/mL
8OHdG concentration, 90 Minutes' standing (2′-deoxyguanosine (dG) [1]; [7]): 0.31 ng/mL
8OHdG concentration, 90 Minutes' UV irradiation (2′-deoxyguanosine (dG) [1]; [7]): 6.19 ng/mL
8OHdG concentration, 90 Minutes' standing (2′-deoxyguanosine (dG) [1]; [8]): 0.22 ng/mL
8OHdG concentration, 90 Minutes' UV irradiation (2′-deoxyguanosine (dG) [1]; [8]): 11.58 ng/mL
effect on 8OHdG with BPA and UV light irradiation (2′-deoxyguanosine (dG) [1]; Example 9): increases depending on concentration
Acceptable uptake amount ([2]; common in every country): 0.05 mg/kg/day
8OHdG concentration, 90 Minutes' UV irradiation (2′-deoxyguanosine (dG) [3]; 0.0005 ppm, Table 1): 0.689 ng/mL
8OHdG concentration, 90 Minutes' standing (2′-deoxyguanosine (dG) [3]; [9]): 0.315 ng/mL
8OHdG concentration, 90 Minutes' UV irradiation (2′-deoxyguanosine (dG) [3]; 0.005 ppm, Table 1): 0.794 ng/mL
8OHdG concentration, 90 Minutes' UV irradiation (2′-deoxyguanosine (dG) [3]; 0.05 ppm, Table 1): 0.614 ng/mL
8OHdG concentration, 90 Minutes' standing (2′-deoxyguanosine (dG) [3]; [10]): 0.231 ng/mL
8OHdG concentration, 90 Minutes' UV irradiation (2′-deoxyguanosine (dG) [3]; 0.5 ppm, Table 1): 1.736 ng/mL
8OHdG concentration, 90 Minutes' standing (2′-deoxyguanosine (dG) [3]; [11]): 0.192 ng/mL
8OHdG concentration, 90 Minutes' UV irradiation (2′-deoxyguanosine (dG) [3]; 5 ppm, Table 1): 7.142 ng/mL
concentration at which oxidation injury activity due to UV light is elevated (harmfulness increased) (2′-deoxyguanosine (dG) [3]): ≥ 0.5 ppm

O=C([O-])CN(CCN(CC(=O)[O-])CC(=O)[O-])CC(=O)[O-].[Na+].[Na+].[Na+].[Na+] [EDTA, sodium ethylenediaminetetraacetate]
8OHdG concentration, 30 Minutes' standing (2′-deoxyguanosine (dG) [4]; 1 mM): 0.784 ng/mL
dG (2′-deoxyguanosine (dG) [5]; 1 mM): 0.997 VS
8OHdG/dG × 10^−3 (2′-deoxyguanosine (dG) [5]; 1 mM): 1.101 × 10^−3
8OHdG × 10^−3 (2′-deoxyguanosine (dG) [5]; 1 mM): 1.098 mVs
Relative initial magnification (2′-deoxyguanosine (dG) [5]; 1 mM): 4.19 times

OCC(O)CO [Gly, glycerol]
8OHdG concentration, 30 Minutes' standing (2′-deoxyguanosine (dG) [4]; 10%): 1.123 ng/mL
dG (2′-deoxyguanosine (dG) [5]; 10%): 1.044 VS
8OHdG/dG × 10^−3 (2′-deoxyguanosine (dG) [5]; 10%): 1.506 × 10^−3
8OHdG × 10^−3 (2′-deoxyguanosine (dG) [5]; 10%): 1.572 mVs

CO [Meth, methanol]
8OHdG concentration, 30 Minutes' standing (2′-deoxyguanosine (dG) [4]; 1%): 2.059 ng/mL
8OHdG concentration, 30 Minutes' standing (2′-deoxyguanosine (dG) [4]; 2.5%): 1.685 ng/mL
dG (2′-deoxyguanosine (dG) [5]; 1%): 1.04 VS
8OHdG/dG × 10^−3 (2′-deoxyguanosine (dG) [5]; 1%): 2.771 × 10^−3
dG (2′-deoxyguanosine (dG) [5]; 5%): 1.054 VS
8OHdG/dG × 10^−3 (2′-deoxyguanosine (dG) [5]; 5%): 2.238 × 10^−3
8OHdG × 10^−3 (2′-deoxyguanosine (dG) [5]; 5%): 2.359 mVs
8OHdG concentration, UV irradiation 60 minutes (2′-deoxyguanosine (dG) [3]; 5%, Table 3, ultrapure water 0.231): 0.181 ng/mL
8OHdG concentration, Standing 24 hours (2′-deoxyguanosine (dG) [3]; [12]): 0.336 ng/mL
8OHdG concentration, UV irradiation 90 minutes (2′-deoxyguanosine (dG) [3]; [12]): 0.209 ng/mL
8OHdG concentration, UV irradiation 120 minutes (2′-deoxyguanosine (dG) [3]; 5%, Table 3, ultrapure water 0.645): 0.332 ng/mL
8OHdG concentration, UV irradiation 60 minutes (2′-deoxyguanosine (dG) [3]; 20%, Table 3, ultrapure water 0.231): 0.324 ng/mL
8OHdG concentration, Standing 24 hours (2′-deoxyguanosine (dG) [3]; [13]): 0.274 ng/mL
8OHdG concentration, UV irradiation 90 minutes (2′-deoxyguanosine (dG) [3]; [13]): 0.395 ng/mL
8OHdG concentration, UV irradiation 120 minutes (2′-deoxyguanosine (dG) [3]; 20%, Table 3, ultrapure water 0.645): 0.518 ng/mL
evaluation in words: oxidation induction or antioxidant ability toward dG (2′-deoxyguanosine (dG) [3]): potent antioxidant ability

Oc1c(Cl)c(Cl)c(Cl)c(Cl)c1Cl [PCP, pentachlorophenol]
safety concentration ([2]; reported): 5 mg/kg
8OHdG concentration, 90 Minutes' standing (2′-deoxyguanosine (dG) [3]; 0.0005 ppm, Table 1, ultrapure water 0.267): 0.260 ng/mL
8OHdG concentration, 90 Minutes' UV irradiation (2′-deoxyguanosine (dG) [3]; 0.0005 ppm, Table 1): 0.585 ng/mL
8OHdG concentration, 90 Minutes' standing (2′-deoxyguanosine (dG) [3]; [9]): 0.236 ng/mL
8OHdG concentration, 90 Minutes' UV irradiation (2′-deoxyguanosine (dG) [3]; 0.005 ppm, Table 1): 0.451 ng/mL
8OHdG concentration, 90 Minutes' standing (2′-deoxyguanosine (dG) [3]; 0.05 ppm, Table 1, ultrapure water 0.267): 0.285 ng/mL
8OHdG concentration, 90 Minutes' UV irradiation (2′-deoxyguanosine (dG) [3]; 0.05 ppm, Table 1): 0.431 ng/mL
8OHdG concentration, 90 Minutes' standing (2′-deoxyguanosine (dG) [3]; [10]): 0.282 ng/mL
8OHdG concentration, 90 Minutes' UV irradiation (2′-deoxyguanosine (dG) [3]; 0.5 ppm, Table 1): 0.396 ng/mL
8OHdG concentration, 90 Minutes' standing (2′-deoxyguanosine (dG) [3]; [11]): 0.340 ng/mL
8OHdG concentration, 90 Minutes' UV irradiation (2′-deoxyguanosine (dG) [3]; 5 ppm, Table 1): 5.730 ng/mL
concentration at which oxidation injury activity due to UV light is elevated (harmfulness increased) (2′-deoxyguanosine (dG) [3]): 5 ppm

OC[C@H]1O[C@H](OC[C@H]2O[C@H](O[C@]3(CO)O[C@H](CO)[C@@H](O)[C@@H]3O)[C@H](O)[C@@H](O)[C@@H]2O)[C@H](O)[C@@H](O)[C@H]1O [Raffi, raffinose]
dG (2′-deoxyguanosine (dG) [5]; 1 mg/ml): 0.926 VS
8OHdG/dG × 10^−3 (2′-deoxyguanosine (dG) [5]; 1 mg/ml): 2.513 × 10^−3
8OHdG × 10^−3 (2′-deoxyguanosine (dG) [5]; 1 mg/ml): 2.327 mVs
Relative initial magnification (2′-deoxyguanosine (dG) [5]; 1 mg/ml): 9.55 times
dG (2′-deoxyguanosine (dG) [5]; 10 mg/ml): 1.045 VS
8OHdG/dG × 10^−3 (2′-deoxyguanosine (dG) [5]; 10 mg/ml): 3.137 × 10^−3
8OHdG × 10^−3 (2′-deoxyguanosine (dG) [5]; 10 mg/ml): 3.278 mVs
Relative initial magnification (2′-deoxyguanosine (dG) [5]; 10 mg/ml): 11.93 times
8OHdG concentration, 90 Minutes' standing (2′-deoxyguanosine (dG) [3]; 0.1 μg/ml, Table 4, ultrapure water 0.195): 0.205 ng/mL
8OHdG concentration, UV irradiation 60 minutes (2′-deoxyguanosine (dG) [3]; 0.1 μg/ml, Table 4, ultrapure water 0.392): 0.375 ng/mL
8OHdG concentration, UV irradiation 90 minutes (2′-deoxyguanosine (dG) [3]; 0.1 μg/ml, Table 4, ultrapure water 0.901): 0.689 ng/mL
8OHdG concentration, UV irradiation 120 minutes (2′-deoxyguanosine (dG) [3]; 0.1 μg/ml, Table 4, ultrapure water 1.183): 1.127 ng/mL
8OHdG concentration, 90 Minutes' standing (2′-deoxyguanosine (dG) [3]; 1 μg/ml, Table 4, ultrapure water 0.195): 0.185 ng/mL
8OHdG concentration, UV irradiation 60 minutes (2′-deoxyguanosine (dG) [3]; 1 μg/ml, Table 4, ultrapure water 0.392): 0.304 ng/mL
8OHdG concentration, UV irradiation 90 minutes (2′-deoxyguanosine (dG) [3]; 1 μg/ml, Table 4, ultrapure water 0.901): 0.854 ng/mL
8OHdG concentration, UV irradiation 120 minutes (2′-deoxyguanosine (dG) [3]; 1 μg/ml, Table 4, ultrapure water 1.183): 1.049 ng/mL
8OHdG concentration, 90 Minutes' standing (2′-deoxyguanosine (dG) [3]; 10 μg/ml, Table 4, ultrapure water 0.195): 0.405 ng/mL
8OHdG concentration, UV irradiation 60 minutes (2′-deoxyguanosine (dG) [3]; 10 μg/ml, Table 4, ultrapure water 0.392): 0.281 ng/mL
8OHdG concentration, UV irradiation 90 minutes (2′-deoxyguanosine (dG) [3]; 10 μg/ml, Table 4, ultrapure water 0.901): 0.626 ng/mL
8OHdG concentration, UV irradiation 120 minutes (2′-deoxyguanosine (dG) [3]; 10 μg/ml, Table 4, ultrapure water 1.183): 1.314 ng/mL
8OHdG concentration, 90 Minutes' standing (2′-deoxyguanosine (dG) [3]; 100 μg/ml, Table 4, ultrapure water 0.195): 0.455 ng/mL
8OHdG concentration, UV irradiation 60 minutes (2′-deoxyguanosine (dG) [3]; 100 μg/ml, Table 4, ultrapure water 0.392): 0.158 ng/mL
8OHdG concentration, UV irradiation 90 minutes (2′-deoxyguanosine (dG) [3]; 100 μg/ml, Table 4, ultrapure water 0.901): 0.370 ng/mL
8OHdG concentration, UV irradiation 120 minutes (2′-deoxyguanosine (dG) [3]; 100 μg/ml, Table 4, ultrapure water 1.183): 0.503 ng/mL
8OHdG concentration, 90 Minutes' standing (2′-deoxyguanosine (dG) [3]; 1 mg/ml, Table 4, ultrapure water 0.195): 0.340 ng/mL
8OHdG concentration, UV irradiation 60 minutes (2′-deoxyguanosine (dG) [3]; 1 mg/ml, Table 4, ultrapure water 0.392): 0.115 ng/mL
8OHdG concentration, UV irradiation 90 minutes (2′-deoxyguanosine (dG) [3]; 1 mg/ml, Table 4, ultrapure water 0.901): 0.176 ng/mL
8OHdG concentration, UV irradiation 120 minutes (2′-deoxyguanosine (dG) [3]; 1 mg/ml, Table 4, ultrapure water 1.183): 0.240 ng/mL
concentration at which antioxidant ability is effective (2′-deoxyguanosine (dG) [3]; Example 4): ≥ 10 µg/mL
evaluation in words: oxidation induction or antioxidant ability toward dG (2′-deoxyguanosine (dG) [3]): Glu>Raffi≈Suc

From patent US7531312B2, “Simplified biological evaluation method of natural and artificial chemicals by using DNA injury index and apparatus therefor” (TAS Project Co., Ltd., priority 2000, dated 2009)
